According to BindingDB's records for doi:10.1016/j.bioorg.2017.03.013 (Birla Institute of Technology, 2017):
pIC50: −log10 of the molar value.

molecular target: Gag-Pol polyprotein (Human immunodeficiency virus type 1 group M subtype B (isolate HXB2), UniProt P04585); experiment: HIV-1 RT In-Vitro Assay
Protocol: The reaction mixture was set with template primer complex, RT enzyme and dNTPs in a lysis buffer with or without inhibitors. The reaction mixture was incubated at 37 °C for 1 h and then transferred to streptavidine-coated microtitre plate (MTP). The biotin-labeled dNTPs that were incorporated in the template due to activity of RT, bound to streptavidine. The unbound dNTPs were washed using wash buffer and anti-DIG-POD was added to the MTP. The DIG-labeled dNTPs incorporated in the template were bound to an anti-DIG-POD antibody. The unbound anti-DIG-POD was washed again with washing buffer and the peroxide substrate (ABST) was added to the MTP. A colored reaction product was produced during the cleavage of the substrate catalyzed by a peroxide enzyme. The absorbance of the sample was determined as an optical density (OD) at 405 nm using a micro titer plate ELISA reader.

Row | Structure (SMILES) | pIC50
1 | CC1CC(=O)Nc2ccccc2N1C(=O)c1ccccc1Br (centres undefined) [5-(2-bromobenzoyl)-4-methyl-1,3,4,5-tetrahydro-2H-1,5-benzodiazepin-2-one (A13)] | 4.03
2 | CC1CC(=O)Nc2ccccc2N1C(=O)c1ccccc1Cl (centres undefined) [5-(2-chlorobenzoyl)-4-methyl-1,3,4,5-tetrahydro-2H-1,5-benzodiazepin-2-one (A10)] | 5.06
3 | CC1CC(=O)Nc2ccccc2N1C(=O)c1ccccc1F (centres undefined) [5-(2-fluorobenzoyl)-4-methyl-1,3,4,5-tetrahydro-2H-1,5-benzodiazepin-2-one (A7)] | < 4.00
4 | Cc1ccccc1C(=O)N1c2ccccc2NC(=O)CC1C (centres undefined) [5-(2-methylbenzoyl)-4-methyl-1,3,4,5-tetrahydro-2H-1,5-benzodiazepin-2-one (A2)] | 4.84
5 | CC1CC(=O)Nc2ccccc2N1C(=O)c1cccc(Cl)c1 (centres undefined) [5-(3-chlorobenzoyl)-4-methyl-1,3,4,5-tetrahydro-2H-1,5-benzodiazepin-2-one (A11)] | 5.16
6 | CC1CC(=O)Nc2ccccc2N1C(=O)c1cccc(F)c1 (centres undefined) [5-(3-fluorobenzoyl)-4-methyl-1,3,4,5-tetrahydro-2H-1,5-benzodiazepin-2-one (A8)] | 4.12
7 | COc1cccc(C(=O)N2c3ccccc3NC(=O)CC2C)c1 (centres undefined) [5-(3-methoxybenzoyl)-4-methyl-1,3,4,5-tetrahydro-2H-1,5-benzodiazepin-2-one (A5)] | 4.06
8 | Cc1cccc(C(=O)N2c3ccccc3NC(=O)CC2C)c1 (centres undefined) [5-(3-methylbenzoyl)-4-methyl-1,3,4,5-tetrahydro-2H-1,5-benzodiazepin-2-one (A3)] | 4.58

Continued, values first:

Row | pIC50 | Structure (SMILES)
9 | 4.16 | CC1CC(=O)Nc2ccccc2N1C(=O)c1ccc(Br)cc1 (centres undefined) [5-(4-bromobenzoyl)-4-methyl-1,3,4,5-tetrahydro-2H-1,5-benzodiazepin-2-one (A14)]
10 | 4.42 | CC1CC(=O)Nc2ccccc2N1C(=O)c1ccc(Cl)cc1 (centres undefined) [5-(4-chlorobenzoyl)-4-methyl-1,3,4,5-tetrahydro-2H-1,5-benzodiazepin-2-one (A12)]
11 | 4.60 | CC1CC(=O)Nc2ccccc2N1C(=O)c1ccc(F)cc1 (centres undefined) [5-(4-fluorobenzoyl)-4-methyl-1,3,4,5-tetrahydro-2H-1,5-benzodiazepin-2-one (A9)]
12 | 4.26 | COc1ccc(C(=O)N2c3ccccc3NC(=O)CC2C)cc1 (centres undefined) [5-(4-methoxybenzoyl)-4-methyl-1,3,4,5-tetrahydro-2H-1,5-benzodiazepin-2-one (A6)]
13 | < 4.00 | Cc1ccc(C(=O)N2c3ccccc3NC(=O)CC2C)cc1 (centres undefined) [5-(4-methylbenzoyl)-4-methyl-1,3,4,5-tetrahydro-2H-1,5-benzodiazepin-2-one (A4)]
14 | 4.76 | CC1CC(=O)Nc2ccccc2N1C(=O)c1ccccc1 (centres undefined) [5-(benzoyl)-4-methyl-1,3,4,5-tetrahydro-2H-1,5-benzodiazepin-2-one (A1)]
